# Laboratory results from US8119663B2, “Heteroaryl-substituted piperidines” (Bayer Pharma Aktiengesellschaft, priority 2007, dated 2012).
# Target: T1, human protease activated receptor 1 (PAR1) (Homo sapiens, UniProt P25116)
# T1 construct: the cell stably expresses the endogenous human PAR1 receptor and the endogenous purinergic receptor P2Y2; endogenous in cells; host or cells: HEK293-derived recombinant cell line constitutively expressing mitochondrial aequorin
# T1 sequence (P25116 22-425): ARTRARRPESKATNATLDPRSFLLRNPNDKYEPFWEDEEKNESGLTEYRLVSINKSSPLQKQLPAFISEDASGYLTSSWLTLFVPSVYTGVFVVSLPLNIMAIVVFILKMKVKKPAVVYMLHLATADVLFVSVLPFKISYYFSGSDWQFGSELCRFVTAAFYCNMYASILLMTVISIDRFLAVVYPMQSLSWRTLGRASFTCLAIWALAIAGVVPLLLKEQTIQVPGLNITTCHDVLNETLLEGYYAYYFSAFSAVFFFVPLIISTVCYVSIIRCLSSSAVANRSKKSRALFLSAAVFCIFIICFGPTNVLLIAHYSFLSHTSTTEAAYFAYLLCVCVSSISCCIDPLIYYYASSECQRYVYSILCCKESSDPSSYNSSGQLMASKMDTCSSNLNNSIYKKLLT
# Assay: Cellular functional in vitro test (aequorin luminescence, PAR1 test cell)
# Format: cell-based
# Details: recombinant HEK293-derived cell line expressing aequorin; PAR1 agonist added at its EC50 5 minutes after test substance
# From the text: 1.a) Cellular Functional In vitro Test
# A recombinant cell line is used to identify […] of the human protease activated receptor 1 (PAR1) and to quantify the activity of the substances described herein. The cell is originally derived from a human embryonal kidney cell (HEK293; ATCC: American Type Culture Collection, Manassas, Va. 20108, USA). The test cell line constitutively expresses a modified form of the calcium-sensitive photoprotein aequorin which, after reconstitution with the cofactor coelenterazine, emits light when the free calcium concentration in the inner mitochondrial compartment is increased (Rizzuto R, Simpson A W, Brini M, Pozzan T.; Nature 1992, 358, 325-327). Additionally, the cell stably expresses the endogenous human PAR1 receptor and the endogenous purinergic receptor P2Y2. The resulting PAR1 test cell responds to stimulation of the endogenous PAR1 or P2Y2 receptor with an intracellular release of calcium ions, which can be quantified through resulting aequorin luminescence with a suitable luminometer (Milligan G, Marshall F, Rees S, Trends in Pharmacological Sciences 1996, 17, 235-237).
# For testing the substance specificity, its effect after activation of the endogenous PAR1 receptor is compared to the effect after activation of the endogenous purinergic P2Y2 receptor which utilizes the same intracellular signal path.
# Test procedure: The cells are plated out two days (48 hours) before the test in culture medium (DMEM F12, supplemented with 10% FCS, 2 mM glutamine, 20 mM HEPES, 1.4 mM pyruvate, 0.1 mg/ml gentamycin, 0.15% Na bicarbonate; BioWhittaker Cat.# BE04-687Q; B-4800 Verviers, Belgium) in 384-well microtitre plates and kept in a cell incubator (96% atmospheric humidity, 5% V/V CO2, 37° C.). On the day of the test, the culture medium is replaced by a tyrode solution (in mM: 140NaCl, 5l KCl, 1MgCl2, 2CaCl2, 20 glucose, 20 HEPES), which additionally contains the cofactor coelenterazine (25 μM) and glutathione (4 mM), and the microtitre plate is then incubated for a further 3-4 hours. The test substances are then pipetted onto the microtitre plate, and 5 minutes after the transfer of the test substances into the wells of the microtitre plate the plate is transferred into the luminometer, a PAR1 agonist concentration which corresponds to the EC50 is added and the resulting light signal is immediately measured in the luminometer. To distinguish an antagonist substance action from a toxic action, the endogenous purinergic receptor is immediately subsequently activated with agonist (ATP, final concentration 10 μM) and the resulting light signal is measured.
row,Structure (SMILES),IC50 [nM]
1,"O=C(N1CCOCC1)N1CC(c2ccc(OC(F)(F)F)cc2)CC(c2nc(-c3ccc(F)cc3F)no2)C1 (racemic) [Example 38, 4-({3-[3-(2,4-Difluorophenyl)-1,2,4-oxadiazol-5-yl]-5-[4-(trifluoromethoxy)phenyl]piperidin-1-yl}carbonyl)morpholine]",31
2,"COCCc1noc(C2CC(c3cccc(OC(F)(F)F)c3)CN(C(=O)N3CCOCC3)C2)n1 (single isomer, unassigned) [Example 194, {3-[3-(2-Methoxyethyl)-1,2,4-oxadiazol-5-yl]-5-[3-(trifluoromethoxy)phenyl]piperidin-1-yl}-(morpholin-4-yl)methanone]",66.1
3,"Cc1noc(C2CC(c3ccc(C(F)(F)F)cc3)CN(C(=O)N3CCC(O)CC3)C2)n1 (single isomer, unassigned) [Example 260, (4-Hydroxypiperidin-1-yl){(3-(3-methyl-1,2,4-oxadiazol-5-yl)-5-[4-trifluoromethyl)phenyl]-piperidin-1-yl}methanone]",11.4
4,"COCCc1noc(C2CC(c3ccc(C(F)(F)F)cc3)CN(C(=O)N3CCC(O)CC3)C2)n1 (single isomer, unassigned) [Example 275, (4-Hydroxypiperidin-1-yl) {3-[3-(2-methoxyethyl)-1,2,4-oxadiazol-5-yl]-5-[4-(trifluoromethyl)-phenyl]piperidin-1-yl}methanone]",10.3
5,"COCCc1noc(C2CC(c3ccc(C(F)(F)F)cc3)CN(C(=O)N3CCC(O)CC3)C2)n1 (single isomer, unassigned) [Example 276, (4-Hydroxypiperidin-1-yl) {3-[3-(2-methoxyethyl)-1,2,4-oxadiazol-5-yl]-5-[4-(trifluoromethyl)-phenyl]piperidin-1-yl}methanone]",25.3
6,"COCCc1noc(C2CC(c3ccc(C(F)(F)F)cc3)CN(C(=O)N3CC(O)C3)C2)n1 (single isomer, unassigned) [Example 279]",14.7
7,"Cc1noc(C2CC(c3ccc(C(F)(F)F)cc3)CN(C(=O)N3CCOCC3)C2)n1 (single isomer, unassigned) [Example 335, {3-(3-Methyl-1,2,4-oxadiazol-5-yl)-5-[4-(trifluoromethyl)phenyl]piperidin-1-yl}(morpholin-4-yl)-methanone]",25.1
8,"COCCc1noc(C2CC(c3ccc(OC(F)(F)F)cc3)CN(C(=O)N3CCC(O)CC3)C2)n1 (single isomer, unassigned) [Example 449, (4-Hydroxypiperidin-1-yl) {3-[3-(2-methoxyethyl)-1,2,4-oxadiazol-5-yl]-5-[4-(trifluoromethoxy)-phenyl]piperidin-1-yl}methanone]",86.3
9,"CC(C)c1noc(C2CC(c3ccc(OC(F)(F)F)cc3)CN(C(=O)N3CCC(O)CC3)C2)n1 (single isomer, unassigned) [Example 451, (4-Hydroxypiperidin-1-yl){3-[3-(propan-2-yl)-1,2,4-oxadiazol-5-yl]-5-[4-(trifluoromethoxy)phenyl]piperidin-1-yl}methanone]",19.6
10,"Cc1noc(C2CC(c3ccc(OC(F)(F)F)cc3)CN(C(=O)N3CCC(O)CC3)C2)n1 (single isomer, unassigned) [Example 454, (4-Hydroxypiperidin-1-yl){3-(3-methyl-1,2,4-oxadiazol-5-yl)-5-[4-(trifluoromethoxy)phenyl]piperidin-1-yl}methanone]",47.5
11,"COCCc1noc(C2CC(c3ccc(C)c(C(F)(F)F)c3)CN(C(=O)N3CCOCC3)C2)n1 (single isomer, unassigned) [Example 459, {3-[3-(2-Methoxyethyl)-1,2,4-oxadiazol-5-yl]-5-[4-methyl-3-(trifluoromethyl)phenyl]piperidin-1-yl}(morpholin-4-yl)methanone]",84.2
12,"CCc1ccc(C2CC(c3nc(CCOC)no3)CN(C(=O)N3CCC(O)CC3)C2)cc1 (single isomer, unassigned) [Example 549, {3-(4-Ethylphenyl)-5-[3-(2-methoxyethyl)-1,2,4-oxadiazol-5-yl]piperidin-1-yl}(4-hydroxy-piperidin-1-yl)methanone]",12.5
13,"COCCc1noc(C2CC(c3ccc(OC(F)(F)F)cc3)CN(C(=O)N3CCC(O)C3)C2)n1 (stereo not drawn) [Example 420, (3-Hydroxypyrrolidin-1-yl) {3-[3-(2-methoxyethyl)-1,2,4-oxadiazol-5-yl]-5-[4-(trifluoromethoxy)-phenyl]piperidin-1-yl}methanone]",23.8
14,"COCc1nc(C2CC(c3ccc(C(F)(F)F)cc3)CN(C(=O)N3CCOCC3)C2)no1 (stereo not drawn) [Example 465, {3-[5-(Methoxymethyl)-1,2,4-oxadiazol-3-yl]-5-[4-(trifluoromethyl)phenyl]piperidin-1-yl}-(morpholin-4-yl)methanone]",24.4

# Further compounds by falling IC50, results first:
row,IC50 [nM],Structure (SMILES)
1,10,"CCc1ccc(C2CC(c3nc(Cc4ccccc4Cl)no3)CN(C(=O)N3CCOCC3)C2)cc1 (racemic) [Example 60, 4-({3-[3-(2-Chlorobenzyl)-1,2,4-oxadiazol-5-yl]-5-(4-ethylphenyl)piperidin-1-yl}carbonyl)-morpholine]"
2,9.39,"O=C(N1CCC(O)C1)N1CC(c2ccc(C(F)(F)F)cc2)CC(c2nc(C3CC3)no2)C1 (stereo not drawn) [Example 146, {3-(3-Cyclopropyl-1,2,4-oxadiazol-5-yl)-5-[4-(trifluoromethyl)phenyl]piperidin-1-yl}(3-hydroxy-pyrrolidin-1-yl)methanone]"
3,6.8,"CCc1ccc(C2CC(c3nc(-c4c(F)cccc4F)no3)CN(C(=O)N3CCOCC3)C2)cc1 (racemic) [Example 39, 4-({3-[3-(2,6-Difluorophenyl)-1,2,4-oxadiazol-5-yl]-5-(4-ethylphenyl)piperidin-1-yl}carbonyl)-morpholine]"
4,5.74,"Cc1noc(C2CC(c3ccc(OC(F)(F)F)cc3)CN(C(=O)N3CCOCC3)C2)n1 (single isomer, unassigned) [Example 239, {3-(3-Methyl-1,2,4-oxadiazol-5-yl)-5-[4-(trifluoromethoxy)phenyl]piperidin-1-yl}(morpholin-4-yl)methanone]"
5,4.77,O=C(N1CCOCC1)N1CC(c2cccc(C(F)(F)F)c2)CC(c2nc(-c3c(F)cccc3F)no2)C1 (stereo not drawn) [Example 352]
6,3.01,"COCCc1noc(C2CC(c3ccc(OC(F)(F)F)c(C)c3)CN(C(=O)N3CCOCC3)C2)n1 (single isomer, unassigned) [Example 322, {3-[3-(2-Methoxyethyl)-1,2,4-oxadiazol-5-yl]-5-[3-methyl-4-(trifluoromethoxy)phenyl]piperidin-1-yl}(morpholin-4-yl)methanone]"
7,2.73,O=C(N1CCOCC1)N1CC(c2cccc(C(F)(F)F)c2)CC(c2nc(-c3cc(F)ccc3F)no2)C1 (stereo not drawn) [Example 356]

# Tested on: platelet-rich plasma (platelet aggregation triggered by thrombin receptor agonist TRAP6, SFLLRN)
# Assay: Platelet aggregation in plasma (TRAP6/SFLLRN-induced, Born turbidimetry)
# Format: cell-based
# Details: Homo sapiens; platelet-rich plasma of healthy volunteers; 10 min incubation at 37° C.; light transmission 5 minutes after agonist; concentration at which aggregation is 50% inhibited
# Experimental: 1.c) Platelet Aggregation in Plasma
# To determine the platelet aggregation, blood of healthy volunteers of both sexes who had not received any thrombocyte aggregation-influencing medication for the last ten days is used. The blood is drawn into monovettes (Sarstedt, Nümbrecht, Germany) which contain, as anticoagulant, sodium citrate 3.8% (1 part of citrate+9 parts of blood). To obtain platelet-rich plasma, the citrated whole blood is centrifuged at 140 g for 20 min.
# For the aggregation measurements, aliquots of the platelet-rich plasma are incubated with increasing concentrations of test substance at 37° C. for 10 min. Aggregation is then triggered by addition of a thrombin receptor agonist (TRAP6, SFLLRN) in an aggregometer and determined at 37° C. using the turbidimetric method according Born (Born, G. V. R., Cross M. J., The Aggregation of Blood Platelets; J. Physiol. 1963, 168, 178-195). The SFLLRN concentration giving maximum aggregation is individually determined for each donor.
# To calculate the inhibitory effect, the increase of light transmission (amplitude of the aggregation curve in %) is determined 5 minutes after addition of the agonist in the presence and absence of test substance, and the inhibition is calculated. The concentration at which the aggregation is 50% inhibited is calculated from the inhibition curves.
row,Structure (SMILES),IC50 [nM]
1,"O=C(N1CCOCC1)N1CC(c2ccc(OC(F)(F)F)cc2)CC(c2nc(-c3ccc(F)cc3F)no2)C1 (racemic) [Example 38, 4-({3-[3-(2,4-Difluorophenyl)-1,2,4-oxadiazol-5-yl]-5-[4-(trifluoromethoxy)phenyl]piperidin-1-yl}carbonyl)morpholine]",93000
2,"CCc1ccc(C2CC(c3nc(-c4c(F)cccc4F)no3)CN(C(=O)N3CCOCC3)C2)cc1 (racemic) [Example 39, 4-({3-[3-(2,6-Difluorophenyl)-1,2,4-oxadiazol-5-yl]-5-(4-ethylphenyl)piperidin-1-yl}carbonyl)-morpholine]",5600
3,"CCc1ccc(C2CC(c3nc(Cc4ccccc4Cl)no3)CN(C(=O)N3CCOCC3)C2)cc1 (racemic) [Example 60, 4-({3-[3-(2-Chlorobenzyl)-1,2,4-oxadiazol-5-yl]-5-(4-ethylphenyl)piperidin-1-yl}carbonyl)-morpholine]",19600
